Reference: US7368129B1, “Amphiphilic materials and liposome formulations thereof” (Nutrimed Biotech, priority 1996, dated 2008)

Assay: X-ray diffraction of hydrated amphiphile and phosphatidylcholine mixtures at constant osmotic pressure
Format: physicochemical
Conditions: 20° C., constant osmotic pressure 1.6×10^5 dyne/cm^2; 20 mole percent Oleoyl-PEG(1500)-Oleoyl; pure SOPC = 0 mole % additive
Excerpt: Unoriented multilamellar fully hydrated lipid preparations in sealed glass capillaries held in a point collimated X-ray beam produce recordable “powder” diffraction patterns. The overall lamellar repeat period calculated from X-ray diffraction pattern comprises discernible double lipid chain thickness and interbilayer separation arising from the aqueous fluid in contact with the polar head groups. For osmotically stressed multilamellar preparations, the interbilayer separation decreases as a function of applied pressure and reaches a minimum approaching the closest contact for the head groups of the opposing phospholipids. […]
In the multilamellar vesicles prepared from phospholipid compositions doped with the novel amphiphiles, the bulky head group residues are expected to reside in and enlarge (widen) the interbilayer gap. Therefore, in comparative studies on preparations with and without a selected amphiphile, the interbilayer repeat distances are measured. In addition, the effect of osmotic pressures, produced by 4% PVP (up to ca. 1.6×10^5 dyne/cm^2), is evaluated. […]
X-ray diffraction was used to characterize the liposomes (MLVs) prepared in EXAMPLE 1 by hydration of selected novel amphiphile and PC mixtures. […] Osmotic pressures for PVP solutions are recorded in the literature (Parsegian et al., 1986). […]

lamellar repeat period d100 in SOPC as a function of mole percent additive: 58 Å
SMILES: CCCCCCCC/C=C\CCCCCCCC(=O)O[C@H](COC(=O)CCCCCCCCCCCCCCCCC)COP(=O)([O-])OCC[N+](C)(C)C [SOPC, 1-stearoyl-2-oleoyl-sn-glycero-3-phosphocholine]
